Measured values as given in ChEMBL document CHEMBL5120875, “Discovery of diarylheptanoids that activate α7 nAchR-JAK2-STAT3 signaling in macrophages with anti-inflammatory activity in vitro and in vivo” (Bioorg Med Chem, 2022).

How the values were obtained:
RAW264.7 [1] = assay: Inhibition of LPS-induced NO production in mouse RAW264.7 cells at 5 uM preincubated with compound for 2 hrs followed by LPS stimulation for 24 hrs by Griess reagent based assay relative to control; format: functional; settings: time 26 hrs
RAW264.7 [2] = assay: Cytotoxicity against mouse RAW264.7 cells assessed as effect on cell viability at 5 uM incubated for 24 hrs by alamar blue reagent based fluorescence assay; format: toxicity; settings: raw264.7, 24 h

| Compound | inhibition at 5 µM (RAW264.7 [1]) | Activity (RAW264.7 [2]) |
| --- | --- | --- |
| COC(/C=C/C=C/c1ccccc1)CCc1ccc(O)cc1 (stereo not given) | 66.3% | Non-Toxic |
| COc1ccc(CCCCC(=O)CCc2ccc(OC)c(O)c2)c(OC)c1 | 16.6% | Non-Toxic |
| Oc1ccc(CCC(O)CC(O)CCc2ccccc2)cc1 (stereo not given) | 20.5% | Non-Toxic |
| O=C(CCc1ccccc1)C[C@@H](O)/C=C/c1ccccc1 | 11% | Non-Toxic |
| O=C(CCCCc1ccccc1)CCc1ccc(O)cc1 | 68.3% | Non-Toxic |
| COc1ccc(OC)c(CCCCC(=O)CCc2ccc(OC)c(O)c2)c1 | 39.4% | Non-Toxic |
| O=C(CC/C=C/c1ccccc1)CCc1ccccc1 | -8.52% | Non-Toxic |
| COc1ccc(CCC(/C=C/C=C/c2ccccc2)OC)cc1O (stereo not given) | 71.1% | Non-Toxic |
| O=C(CC/C=C/c1ccccc1)CCc1ccc(O)cc1 | 46.1% | Non-Toxic |
| CC(=O)Oc1ccc(CCC(=O)CCCCc2ccccc2)cc1 | 45.2% | Non-Toxic |
| COc1cc(CCC(O)/C=C/C=C/c2ccccc2)ccc1O (stereo not given) | 35.3% | Non-Toxic |
| O=C(/C=C/C=C/c1ccccc1)CCc1ccc(O)cc1 | 60.4% | Non-Toxic |
| COc1ccc(CCC(=O)CC/C=C/c2ccccc2)cc1 | -17.2% | Non-Toxic |
| O=C(/C=C/C=C/c1ccccc1)CCc1ccccc1 | 52.8% | Non-Toxic |
| Oc1ccc(CC[C@@H](O)CC/C=C/c2ccccc2)cc1 | 20.4% | Non-Toxic |
| COc1ccc(CCC(=O)CCCCc2cccc(O)c2)cc1 | 21.4% | Non-Toxic |
| O/N=C(/CC/C=C/c1ccccc1)CCc1ccccc1 | 39.4% | Non-Toxic |
| O[C@@H](/C=C/C=C/c1ccccc1)CCc1ccccc1 | 4.61% | Non-Toxic |

| Compound | inhibition at 5 µM (RAW264.7 [1]) | Activity (RAW264.7 [2]) |
| --- | --- | --- |
| O[C@@H](CC/C=C/c1ccccc1)CCc1ccccc1 | -18.3% | Non-Toxic |
| COc1ccc(CCCCC(=O)CCc2cccc(O)c2)c(OC)c1 | 2.74% | Non-Toxic |
| O=C(CCc1ccccc1)C[C@@H](O)CCc1ccccc1 | 14.7% | Non-Toxic |
| CC(=O)Oc1ccc(CCC(=O)CC/C=C/c2ccccc2)cc1 | 22.2% | Non-Toxic |
| COc1cc(CC[C@@H](O)CC/C=C/c2ccccc2)ccc1O | 47.9% | Non-Toxic |
| O[C@@H](CC/C=C/c1ccccc1)CCc1ccc(OCc2ccccc2)cc1 | -15.7% | Non-Toxic |
| Oc1ccc(CC[C@@H](O)CCCCc2ccccc2)cc1O | 54% | Non-Toxic |
| COc1ccc(OC)c(CCCCC(O)CCc2ccc(OC)c(O)c2)c1 (stereo not given) | 36.2% | Non-Toxic |
| O=C(CCCCc1ccccc1)CCc1ccccc1 | 38.9% | Non-Toxic |
| Oc1ccc(CC[C@@H](O)CC/C=C/c2ccccc2)cc1O | 34.7% | Non-Toxic |
| OC(CCc1ccccc1)CC(O)CCc1ccccc1 (stereo not given) | 23.5% | Non-Toxic |
| Oc1ccc(CCCC[C@H](O)CCc2ccccc2)cc1 | 23.9% | Non-Toxic |
| COc1ccc(CCCCC(O)CCc2cccc(O)c2)c(OC)c1 (stereo not given) | -14.5% | Non-Toxic |
| COc1ccc(CCC(=O)CCCCc2cccc(O)c2)cc1O | 8.39% | Non-Toxic |
| O[C@@H](CCCCc1ccccc1)CCc1ccccc1 | 40.1% | Non-Toxic |
| COc1cc(CCC(=O)CC/C=C/c2ccccc2)ccc1O | 52.2% | Non-Toxic |
| COc1ccc(CCCCC(O)CCc2ccc(OC)c(O)c2)c(OC)c1 (stereo not given) | -2.9% | Non-Toxic |
